In paper PMC6927398 (Journal of the American Chemical Society, 2019):

Molecular target: IvoA (Aspergillus nidulans, UniProt C8V7P4)
Assay: chiral HPLC of D-tryptophan formation, steady-state kinetics
Type: biochemical
Conditions: substrate inhibition; ATP-dependent stereoinversion, apparent constant

IvoA, sequence (C8V7P4 whole entry): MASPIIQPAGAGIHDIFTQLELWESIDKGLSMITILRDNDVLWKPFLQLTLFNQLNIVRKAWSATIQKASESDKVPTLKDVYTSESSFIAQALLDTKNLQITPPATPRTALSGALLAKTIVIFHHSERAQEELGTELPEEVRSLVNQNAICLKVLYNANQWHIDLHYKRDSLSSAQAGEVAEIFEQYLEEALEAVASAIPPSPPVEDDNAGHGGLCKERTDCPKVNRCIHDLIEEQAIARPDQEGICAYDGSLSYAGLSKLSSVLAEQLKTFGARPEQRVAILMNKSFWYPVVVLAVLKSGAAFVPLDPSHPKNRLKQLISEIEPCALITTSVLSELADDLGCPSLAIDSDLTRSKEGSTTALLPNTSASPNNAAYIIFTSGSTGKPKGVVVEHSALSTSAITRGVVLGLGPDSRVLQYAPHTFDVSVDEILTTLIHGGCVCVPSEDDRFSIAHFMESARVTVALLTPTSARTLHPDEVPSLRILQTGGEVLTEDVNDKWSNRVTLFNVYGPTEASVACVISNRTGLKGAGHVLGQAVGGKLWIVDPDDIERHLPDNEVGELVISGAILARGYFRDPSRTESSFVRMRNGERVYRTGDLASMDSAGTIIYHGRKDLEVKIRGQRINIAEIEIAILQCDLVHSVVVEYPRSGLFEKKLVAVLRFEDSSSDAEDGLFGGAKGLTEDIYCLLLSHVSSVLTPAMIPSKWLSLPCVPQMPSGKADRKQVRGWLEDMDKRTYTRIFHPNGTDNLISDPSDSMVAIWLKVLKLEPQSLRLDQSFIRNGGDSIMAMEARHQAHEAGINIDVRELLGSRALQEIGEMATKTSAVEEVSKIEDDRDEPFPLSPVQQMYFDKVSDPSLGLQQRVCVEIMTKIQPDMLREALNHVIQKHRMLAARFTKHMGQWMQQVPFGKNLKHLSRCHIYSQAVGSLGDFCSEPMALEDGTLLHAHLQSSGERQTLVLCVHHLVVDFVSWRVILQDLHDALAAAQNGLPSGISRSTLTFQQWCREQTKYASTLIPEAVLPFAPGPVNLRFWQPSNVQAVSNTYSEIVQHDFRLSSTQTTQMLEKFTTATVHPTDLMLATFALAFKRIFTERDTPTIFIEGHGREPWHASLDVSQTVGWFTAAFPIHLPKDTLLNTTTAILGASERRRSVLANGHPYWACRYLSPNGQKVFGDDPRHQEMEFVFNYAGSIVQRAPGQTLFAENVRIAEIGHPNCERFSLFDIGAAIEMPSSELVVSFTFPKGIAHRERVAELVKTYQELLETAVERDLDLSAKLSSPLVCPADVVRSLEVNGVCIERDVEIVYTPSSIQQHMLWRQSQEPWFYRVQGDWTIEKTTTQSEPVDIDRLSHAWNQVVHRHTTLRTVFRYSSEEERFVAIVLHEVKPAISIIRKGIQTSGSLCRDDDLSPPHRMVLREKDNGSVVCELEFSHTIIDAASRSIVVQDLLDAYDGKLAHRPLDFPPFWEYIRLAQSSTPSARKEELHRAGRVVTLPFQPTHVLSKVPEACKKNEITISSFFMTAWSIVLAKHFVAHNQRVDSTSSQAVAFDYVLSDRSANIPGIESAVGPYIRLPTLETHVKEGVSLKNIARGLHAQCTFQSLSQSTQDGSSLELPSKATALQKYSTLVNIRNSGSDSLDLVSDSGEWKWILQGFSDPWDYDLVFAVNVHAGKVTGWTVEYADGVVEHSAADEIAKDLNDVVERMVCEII

Work on N[C@@H](Cc1c[nH]c2ccccc12)C(=O)O [L-tryptophan] yielded a Ki app of 4 ± 1 mM.
